According to patent publication US7932270B2 (Cytokinetics, Inc., priority 2006, dated 2011):

Target: T1, chicken gizzard smooth muscle myosin subfragment-1 chemically crosslinked to cardiac or skeletal actin (Gallus gallus, UniProt P10587)
T1 construct: chicken gizzard smooth muscle myosin subfragment-1; from tissue; host or cells: chicken gizzard
Test: Smooth muscle myosin ATPase dose response assay (pyruvate kinase/horseradish peroxidase/pyruvate oxidase-coupled, amplex red fluorescence)
Assay type: biochemical
Conditions: read-out: IC50 Arithmetic Mean
How it was run: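 Amplex red fluorescence (480 nm excitation, 615 nm emission) tracked ATP hydrolysis by smooth muscle S1 crosslinked to actin with carbodiimide/N-hydroxysuccinimide. Reactions contained 0.15 mM ATP and 100 mM KCl at pH 7.00, 22° C. IC50 came from a four-parameter logistic fit.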

T1 sequence (P02607 2-151): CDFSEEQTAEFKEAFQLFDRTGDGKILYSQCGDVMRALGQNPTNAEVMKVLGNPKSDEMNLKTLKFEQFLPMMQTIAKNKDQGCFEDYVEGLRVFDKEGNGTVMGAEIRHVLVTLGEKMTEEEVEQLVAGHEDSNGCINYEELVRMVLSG
T1 sequence (P10587 84-789): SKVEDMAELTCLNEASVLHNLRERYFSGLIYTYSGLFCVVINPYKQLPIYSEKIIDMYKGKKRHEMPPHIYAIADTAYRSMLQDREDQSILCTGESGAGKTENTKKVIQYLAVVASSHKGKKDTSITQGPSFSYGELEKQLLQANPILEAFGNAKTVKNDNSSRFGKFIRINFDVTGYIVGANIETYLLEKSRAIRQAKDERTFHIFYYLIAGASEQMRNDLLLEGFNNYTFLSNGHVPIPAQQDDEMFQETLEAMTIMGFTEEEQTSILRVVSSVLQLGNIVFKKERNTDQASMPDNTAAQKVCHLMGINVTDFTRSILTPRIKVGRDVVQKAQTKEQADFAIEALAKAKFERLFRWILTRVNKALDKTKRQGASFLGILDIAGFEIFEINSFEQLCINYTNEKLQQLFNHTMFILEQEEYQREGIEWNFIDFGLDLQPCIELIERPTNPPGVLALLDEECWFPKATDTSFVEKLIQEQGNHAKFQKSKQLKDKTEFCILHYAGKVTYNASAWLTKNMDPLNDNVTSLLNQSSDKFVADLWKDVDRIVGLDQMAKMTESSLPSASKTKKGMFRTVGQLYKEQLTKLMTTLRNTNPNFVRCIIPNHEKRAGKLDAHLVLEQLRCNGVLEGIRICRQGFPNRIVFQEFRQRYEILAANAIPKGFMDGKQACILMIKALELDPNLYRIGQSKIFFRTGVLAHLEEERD

SMILES | IC50 [nM]
N#Cc1ccccc1-c1ccc(C(=O)NCCc2cccc(CN)n2)c(NCCc2cccc(F)c2)n1 [N-{2-[6-(aminomethyl)(2-pyridyl)]ethyl}(6-(2-cyanophenyl)-2-{[2-(3-fluorophenyl)ethyl]amino}(3-pyridyl))carboxamide] | 32
N#Cc1ccccc1-c1ccc(C(=O)NCCCCCN)c(NCCc2cccc(F)c2)n1 [N-(5-aminopentyl)(6-(2-cyanophenyl)-2-{[2-(3-fluorophenyl)ethyl]amino}(3-pyridyl))carboxamide] | 154
O=C(NCc1cccnc1)c1ccc(-c2ccccc2)nc1NCC1(O)CCCCC1 [(2-{[(hydroxycyclohexyl)methyl]amino}-6-phenyl(3-pyridyl))-N-(3-pyridylmethyl)carboxamide] | 7810
COC(=O)[C@H](N)CNC(=O)c1ccc(-c2ccccc2C#N)nc1NCCc1cccc(F)c1 [methyl (2R)-2-amino-3-[(6-(2-cyanophenyl)-2-{[2-(3-fluorophenyl)ethyl]amino}(3-pyridyl))carbonylamino]propanoate] | 2290
N#Cc1ccccc1-c1ccc(C(=O)NC[C@@H]2CCCN2)c(NCCc2cccc(F)c2)n1 [N-[((2S)pyrrolidin-2-yl)methyl](6-(2-cyanophenyl)-2-{[2-(3-fluorophenyl)ethyl]amino}(3-pyridyl))carboxamide] | 4570
Cn1cc(-c2nc(NCCc3cccc(F)c3)c(C(=O)NC[C@H]3CCCN3C(=O)OC(C)(C)C)cc2Cl)cn1 [tert-butyl (2R)-2-{[(5-chloro-2-{[2-(3-fluorophenyl)ethyl]amino}-6-(1-methylpyrazol-4-yl)(3-pyridyl))carbonylamino]methyl}pyrrolidinecarboxylate] | 1600
Cn1cc(-c2nc(NCCc3cccc(F)c3)c(C(=O)NC[C@H]3CCN3C(=O)CCCNC(=O)OC(C)(C)C)cc2F)cn1 [N-[((2R)-1-{4-[(tert-butoxy)carbonylamino]butanoyl}azetidin-2-yl)methyl](5-fluoro-2-{[2-(3-fluorophenyl)ethyl]amino}-6-(1-methylpyrazol-4-yl)(3-pyridyl))carboxamide] | 122
Cc1cc(-c2ccccc2C#N)nc(NCCc2cccc(F)c2)c1C(=O)NCc1cccnc1 [(6-(2-cyanophenyl)-2-{[2-(3-fluorophenyl)ethyl]amino}-4-methyl(3-pyridyl))-N-(3-pyridylmethyl)carboxamide] | 1080
O=C(NCc1cccnc1)c1ccc(-c2ccccc2)nc1NCCC1=CCCCC1 [{2-[(2-cyclohex-1-enylethyl)amino]-6-phenyl(3-pyridyl)}-N-(3-pyridylmethyl)carboxamide] | 532
COC(=O)N1CCNC[C@@H]1CNC(=O)c1ccc(-c2ccccc2C#N)nc1NCCc1cccc(F)c1 [methyl (2R)-2-{[(6-(2-cyanophenyl)-2-{[2-(3-fluorophenyl)ethyl]amino}(3-pyridyl))carbonylamino]methyl}piperazinecarboxylate] | 11600
CC(C)(C)OC(=O)NCCCN1C(=O)CCCC1CNC(=O)c1ccc(-c2ccccc2C#N)nc1NCCc1cccc(F)c1 (stereo not shown) [N-[(1-{3-[(tert-butoxy)carbonylamino]propyl}-6-oxo(2-piperidyl))methyl](6-(2-cyanophenyl)-2-{[2-(3-fluorophenyl)ethyl]amino}(3-pyridyl))carboxamide] | 877
N#Cc1ccccc1-c1ccc(C(=O)NCc2cccc(CN)c2)c(NCCc2cccc(F)c2)n1 [N-{[3-(aminomethyl)phenyl]methyl}(6-(2-cyanophenyl)-2-{[2-(3-fluorophenyl)ethyl]amino}(3-pyridyl))carboxamide] | 12
N#Cc1ccccc1-c1ccc(C(=O)NCC2CCCNC2=O)c(NCCc2cccc(F)c2)n1 (stereo not shown) [(6-(2-cyanophenyl)-2-{[2-(3-fluorophenyl)ethyl]amino}(3-pyridyl))-N-[(2-oxo(3-piperidyl))methyl]carboxamide] | 14
CC(C)(C)OC(=O)NCCCN1C(=O)CCCCC1CNC(=O)c1ccc(-c2ccccc2C#N)nc1NCCc1cccc(F)c1 (stereo not shown) [N-[(1-{3-[(tert-butoxy)carbonylamino]propyl}-7-oxoazaperhydroepin-2-yl)methyl](6-(2-cyanophenyl)-2-{[2-(3-fluorophenyl)ethyl]amino}(3-pyridyl))carboxamide] | 17200
CC[C@H](CNC(=O)c1cc(F)c(-c2cn[nH]c2)nc1NCCc1cccc(F)c1)NC(=O)CN [N-((1R)-1-{[(5-fluoro-2-{[2-(3-fluorophenyl)ethyl]amino}-6-pyrazol-4-yl(3-pyridyl))carbonylamino]methyl}propyl)-2-aminoacetamide] | 160
CN(C)C(=O)[C@H](CN)NC(=O)c1ccc(-c2ccccc2C#N)nc1NCCc1cccc(F)c1 [(2S)-3-amino-2-[(6-(2-cyanophenyl)-2-{[2-(3-fluorophenyl)ethyl]amino}(3-pyridyl))carbonylamino]-N,N-dimethylpropanamide] | 23700
N#Cc1ccccc1-c1ccc(C(=O)NC[C@H]2CCN2C(=O)CCCN)c(NCCc2cccc(F)c2)n1 [N-{[(2R)-1-(4-aminobutanoyl)azetidin-2-yl]methyl}(6-(2-cyanophenyl)-2-{[2-(3-fluorophenyl)ethyl]amino}(3-pyridyl))carboxamide] | 25
CC(=O)N1CCC[C@@H]1CNC(=O)c1ccc(-c2ccccc2C#N)nc1NCCc1cccc(F)c1 [N-[((2R)-1-acetylpyrrolidin-2-yl)methyl](6-(2-cyanophenyl)-2-{[2-(3-fluorophenyl)ethyl]amino}(3-pyridyl))carboxamide] | 119
CNC(=O)c1ccc(-c2ccccc2)nc1NCCc1cccc(C)c1 [N-methyl(2-{[2-(3-methylphenyl)ethyl]amino}-6-phenyl(3-pyridyl))carboxamide] | 6750

Further molecules by falling IC50, results first:

IC50 [nM] | SMILES
26900 | CC(=O)N1CC[C@H](CNC(=O)c2ccc(-c3ccccc3)nc2NCCc2ccccn2)C1 [N-[((3R)-1-acetylpyrrolidin-3-yl)methyl]{6-phenyl-2-[(2-(2-pyridyl)ethyl)amino](3-pyridyl)}carboxamide]
12600 | N#Cc1ccccc1-c1ccc(C(=O)NC[C@@H](CN)NC(=O)CN)c(NCCc2cccc(F)c2)n1 [N-((1R)-2-amino-1-{[(6-(2-cyanophenyl)-2-{[2-(3-fluorophenyl)ethyl]amino}(3-pyridyl))carbonylamino]methyl}ethyl)-2-aminoacetamide]
11000 | O=C(NCC1CCCO1)c1ccc(-c2ccccc2)nc1NCCc1ccccn1 (stereo not shown) [N-(oxolan-2-ylmethyl){6-phenyl-2-[(2-(2-pyridyl)ethyl)amino](3-pyridyl)}carboxamide]
6830 | C[C@@H](CNC(=O)c1ccc(-c2ccccc2C#N)nc1NCCc1cccc(F)c1)N(C)C(=O)CCCN
6820 | O=C(NC[C@@H]1CCCO1)c1ccc(-c2ccccc2)nc1NCCc1ccccn1 [N-[((2S)oxolan-2-yl)methyl]{6-phenyl-2-[(2-(2-pyridyl)ethyl)amino](3-pyridyl)}carboxamide]
3940 | COC(=O)CCC(=O)N1CCC[C@@H]1CNC(=O)c1ccc(-c2cnn(C)c2)nc1NCCc1cccc(F)c1 [methyl 4-((2R)-2-{[(2-{[2-(3-fluorophenyl)ethyl]amino}-6-(1-methylpyrazol-4-yl)(3-pyridyl))carbonylamino]methyl}pyrrolidinyl)-4-oxobutanoate]
2110 | N#Cc1ccccc1-c1ccc(C(=O)NCc2ccc(F)cc2)c(NCCc2cccc(F)c2)n1 [(6-(2-cyanophenyl)-2-{[2-(3-fluorophenyl)ethyl]amino}(3-pyridyl))-N-[(4-fluorophenyl)methyl]carboxamide]
1860 | N#Cc1ccccc1-c1ccc(C(=O)NC[C@@H]2CCCN2C(=O)CCN)c(NCCc2cccc(F)c2)n1 [N-{[(2S)-1-(3-aminopropanoyl)pyrrolidin-2-yl]methyl}(6-(2-cyanophenyl)-2-{[2-(3-fluorophenyl)ethyl]amino}(3-pyridyl))carboxamide]
587 | Cn1cc(-c2ccc(C(=O)NC[C@H]3CCCN3C(=O)CCN)c(NCCc3cccc(F)c3)n2)cn1 [N-{[(2R)-1-(3-aminopropanoyl)pyrrolidin-2-yl]methyl}(2-{[2-(3-fluorophenyl)ethyl]amino}-6-(1-methylpyrazol-4-yl)(3-pyridyl))carboxamide]
513 | COC(=O)[C@@H](CO)NC(=O)c1ccc(-c2ccccc2C#N)nc1NCCc1cccc(F)c1 [methyl (2R)-2-[(6-(2-cyanophenyl)-2-{[2-(3-fluorophenyl)ethyl]amino}(3-pyridyl))carbonylamino]-3-hydroxypropanoate]
456 | N#Cc1ccccc1-c1ccc(C(=O)NC[C@H]2CCCCN2C(=O)[C@H](N)CCCN)c(NCCc2cccc(F)c2)n1 [N-{[(2R)-1-((2R)-2,5-diaminopentanoyl)(2-piperidyl)]methyl}(6-(2-cyanophenyl)-2-{[2-(3-fluorophenyl)ethyl]amino}(3-pyridyl))carboxamide]
275 | Cn1cc(-c2nc(NCCc3cccc(F)c3)c(C(=O)NC[C@H]3CCCN3)cc2F)cn1 [N-[((2R)pyrrolidin-2-yl)methyl](5-fluoro-2-{[2-(3-fluorophenyl)ethyl]amino}-6-(1-methylpyrazol-4-yl)(3-pyridyl))carboxamide]
261 | C[C@@H](N)C(=O)N1CCCC[C@@H]1CNC(=O)c1ccc(-c2ccccc2C#N)nc1NCCc1cccc(F)c1 [N-{[(2R)-1-((2R)-2-aminopropanoyl)(2-piperidyl)]methyl}(6-(2-cyanophenyl)-2-{[2-(3-fluorophenyl)ethyl]amino}(3-pyridyl))carboxamide]
44 | O=C(NCc1cccnc1)c1ccc(-c2cn[nH]c2)nc1NCCc1cccc(F)c1 [(2-{[2-(3-fluorophenyl)ethyl]amino}-6-pyrazol-4-yl(3-pyridyl))-N-(3-pyridylmethyl)carboxamide]
32 | N#Cc1ccccc1-c1ccc(C(=O)NCC2CCNC2=O)c(NCCc2cccc(F)c2)n1 (stereo not shown) [(6-(2-cyanophenyl)-2-{[2-(3-fluorophenyl)ethyl]amino}(3-pyridyl))-N-[(2-oxopyrrolidin-3-yl)methyl]carboxamide]
